# Measurements published in patent US9000048B2, “Fluoropolymer-based emulsions for the intravenous delivery of fluorinated volatile anesthetics” (Wisconsin Alumni Research Foundation, priority 2006, dated 2015).
# Columns and labels:
# [1] = in vivo; cited from earlier work
# [2] = cited from earlier work
# [3] = cited from earlier work; remark: listed apart in the source
# [4] = Solubility of perfluorotridecane in sevoflurane; type: physicochemical; details: organic solvent or mixture, read-out: maximum solubility of perfluorotridecane in sevoflurane
# Description: If intercalation of perfluorotridecane between the perfluorocarbon blocks of F13M5 is the reason that phase separation occurred with sevoflurane, the same effect might be expected to happen when perfluorotridecane is used as an additive to stabilize emulsions of either FC-72 and perfluorooctyl bromide. […] The difference in emulsion stability is likely due to the different solubility of perfluorotridecane in the three fluorinated compounds. […] It is likely that the limited solubility of perfluorotridecane in sevoflurane led to its preferential adsorption at the interface, rather than at the center of the droplet. The greater solubility of perfluorotridecane in the other solvents allowed it to more easily reside in the center of the droplet and act truly as a secondary oil additive.
# [5] = Emulsion droplet sizing and stability by dynamic light scattering and visual phase separation; type: physicochemical
# Description: The emulsions were sized by dynamic light scattering prior to use. For these measurements, the emulsions were mixed by inversion of the centrifuge tube to eliminate inhomogeneity due to either flocculation or sedimentation. The emulsions were then diluted by a factor of 300 by adding 10 μL of the emulsion to 2.990 mL of 0.9% NaCl. Sizing was done by dynamic light scattering (NICOMP 380 ZLS, Particle Sizing Systems, Santa Barbara, Calif.) with a 639 nm laser at a scattering angle of 90°. Each sample was run for 15 min and all numbers are reported as Gaussian volume weighted. The emulsions were only used if the average diameter was less than 350 nm. This cutoff was established to ensure consistent physical characteristics of the emulsion and to prevent acute toxicity that can develop with increased particle size.^15 Additionally, the emulsion was filtered through a 0.45 μm nylon syringe filter. The final nano-emulsions are milky-white.
# As a typical example, sevoflurane (Abbott Labs, N. Chicago, Ill., 3.4 mL) and perfluorooctyl bromide (SynQuest Laboratories, Inc., Alachua, Fla., 1.7 mL) were added to an aqueous 0.9% NaCl solution (11.9 mL) of F13M5 (298 mg, 25 mg/mL), for a total volume of 17 mL. The two-phase mixture was homogenized with a low energy mixer (Power Gen 500, Fisher Scientific, Hampton, N.H.) for 1 min at 21000 rpm at room temperature. The crude emulsion was further homogenized under high pressure (5000 psi, 1 min) using a Microfluidizer (model 110 S, Microfluidics Corp., Newton, Mass.) with the temperature maintained at 20.0° C. with a cooling bath. The product emulsions were stored in 15 mL sterile centrifuge tubes (Corning Inc., Corning, N.Y.) at 4° C. until use. All emulsions were prepared in this same manner with the requisite percentages of each component as necessary. Intralipid emulsions were prepared by adding sevoflurane to Intralipid (20%, Fresenius Kabi, Uppsala, Sweden) and then homogenizing and microfluidizing as above. […]
# [6] = in vivo; cited from earlier work; remark: listed apart in the source
molecule,measurement,setting,value
perfluoro(methyldecalin),circulatory half-time / half life in the body,[1],264 h
FC(F)(Cl)C(F)(F)C(F)(F)C(F)(F)C(F)(F)C(F)(F)C(F)(F)C(F)(F)Cl [perfluorodichlorooctane],circulatory half-time / half life in the body,[1],170 h
FCOC(C(F)(F)F)C(F)(F)F [sevoflurane],water solubility,[2],6 mM
same,maximum solubility of sevoflurane in 30% Intralipid,"[3]; 30% Intralipid, gas equilibration",3.46 % v/v
same,maximum amount of sevoflurane that can be stably emulsified in Intralipid,[3]; Intralipid,3.5 % v/v
same,maximum of sevoflurane emulsified in Intralipid,"[3]; in volume, non-fluorinated lipids (Intralipid)",3.6%
FC(F)(F)C(F)(F)C(F)(F)C(F)(F)/C=C/C(F)(F)C(F)(F)C(F)(F)C(F)(F)F [bis-perfluorobutyl ethylene],circulatory half-time / half life in the body,[1],170 h
FC(F)(F)C(F)(F)C(F)(F)C(F)(F)C(F)(F)C(F)(F)C(F)(F)C(F)(F)C(F)(F)C(F)(F)C(F)(F)C(F)(F)C(F)(F)F [perfluorotridecane],solubility,[4],78 mg/mL
FC1(F)C(F)(F)C(F)(F)C2(F)C(F)(F)C(F)(F)C(F)(F)C(F)(F)C2(F)C1(F)F (centres unmarked) [perfluorodecalin],ripening with different stabilizing additives,[5],ripen similarly
CC(C)c1cccc(C(C)C)c1O [propofol],"therapeutic index, previously published values",[6],3.1
CCCC(C)C1(CC)C(=O)NC(=S)NC1=O (centres unmarked) [thiopental],"therapeutic index, previously published values",[6],2.2
FC(F)(F)C(F)(F)C(F)(F)C(F)(F)C(F)(F)C(F)(F)C(F)(F)C(F)(F)Br [perfluorooctyl bromide],circulatory half-time / half life in the body,[1],four
same,ripening with different stabilizing additives,[5],ripen similarly
same,droplet size / Ostwald ripening with perfluorotridecane as the additive,"[5]; 20% v/v primary oil, perfluorotridecane additive, 1.5% w/v F13M5",the size stabilized and Ostwald ripening appeared to be stopped
